Here are results for two molecules from EPA's ToxValDB 9.5 (doi:10.2903/j.efsa.2006.91r).

Molecules are shown by their SMILES. Converted amounts (≈) assume the structure as drawn.

In data set [1] the test system is Canidae. Particulars: chronic; duration: 1 years; oral; Dog Other; clinical signs.
The subject of data set [2] is Rattus norvegicus.
For data set [3], the system named is Oryctolagus sp. Particulars: acute; oral; mortality.
The test system of data set [4] is Anas platyrhynchos.
Data set [5] concerns Apis mellifera. Particulars: acute; duration: 48 hours; dermal; mortality.
Data set [6] has as its system Aphidius rhopalosiphi. Conditions: acute; duration: 2 days; mortality.
Data set [7] has as its system Lepomis macrochirus. Particulars: acute; duration: 96 hours; mortality.
Data set [8] concerns Bird. Conditions: acute; oral; unspecified; mortality.
In data set [9] the test system is Daphnia magna. Particulars: chronic/long-term; duration: 21 days; reproduction.

What is called NOAEL is the highest dose or exposure tested at which no adverse effect was seen.

Regarding `CNC(=O)Oc1cccc2c1OC(C)(C)C2` [Carbofuran], the NOAEL in data set [1] and in data set [2] (reproduction developmental) was 0.1 mg/kg-day in each case.

Consider `CCCCN(CCCC)SN(C)C(=O)Oc1cccc2c1OC(C)(C)C2` [Carbosulfan], for which the LD50 in [3] was determined as 42.7 mg/kg-day; in data set [5], 0.18 µg/piece; in data set [8], 10 mg/kg. The NOEL in [4] (acute, oral, unspecified, mortality) was found to be 2.51 mg/kg; in [4] (reproductive) it was 2.5 mg/kg-day. For the same molecule, the LC50 in [4] (short-term, oral, feed, mortality) is 3.99 mg/kg-day; in data set [7], 0.015 µg/mL (≈ 0.0394 µM). The LEL in data set [6] stood at 120 g/ha. For the same molecule, the NOAEL turned out to be 1 mg/kg-day in data set [2] (chronic, duration: 104 weeks, neurology) and 2 mg/kg-day in data set [2] (subchronic, duration: 90 days, oral, clinical chemistry). Further, the NOEC in data set [9] is 0.0032 mg/L.
